Reference: ChEMBL document CHEMBL4257573, “Synthesis, modification, and cytotoxic evaluation of 2,3-secotriterpenic β-ketoesters” (Bioorg Med Chem Lett, 2018)

Tests used:
MCF7 = assay: Cytotoxicity against human MCF7 cells assessed as reduction in cell viability after 72 hrs by MTT assay; assay type: functional, cell-based; conditions: MCF7, 72 h
A549 = assay: Cytotoxicity against human A549 cells assessed as reduction in cell viability after 72 hrs by MTT assay; assay type: functional, cell-based; conditions: A549, 72 h
HCT-116 [1] = assay: Cytotoxicity against human HCT116 cells assessed as reduction in cell viability after 72 hrs by MTT assay; assay type: functional, cell-based; conditions: for IC50: HCT-116, 72 h
RD = assay: Cytotoxicity against human RD cells assessed as reduction in cell viability after 72 hrs by MTT assay; assay type: functional, cell-based
[2] = Cytotoxicity against human MS cells assessed as reduction in cell viability after 72 hrs by MTT assay; assay type: functional, cell-based
HEp-2 = assay: Cytotoxicity against human Hep2 cells assessed as reduction in cell viability after 72 hrs by MTT assay; assay type: functional, cell-based; conditions: HEp-2, 72 h
HEK293 = assay: Cytotoxicity against HEK293 cells assessed as reduction in cell viability after 72 hrs by MTT assay; assay type: cell-based; conditions: Homo sapiens, HEK293, 72 h
[3] = Selectivity index, ratio of IC50 for HEK293 cells to IC50 for human MCF7 cells; assay type: toxicity; conditions: HEK293 cells versus MCF7 cells, read-out: Ratio IC50
[4] = Selectivity index, ratio of IC50 for HEK293 cells to IC50 for human MS cells; assay type: toxicity; conditions: HEK293 cells versus MS cells, read-out: Ratio IC50
[5] = Selectivity index, ratio of IC50 for HEK293 cells to IC50 for human Hep2 cells; assay type: toxicity; conditions: HEK293 cells versus Hep2 cells, read-out: Ratio IC50
HCT-116 [6] = assay: Cytotoxicity against human HCT116 cells assessed as reduction in cell viability at 2 uM by MTT assay; assay type: functional, cell-based; conditions: TDE = time-dependent effect

SMILES: CC1(C)CC[C@]23CC[C@]4(C)[C@H](CC[C@@H]5[C@@](C)(CC#N)[C@H](C(C)(C)C(=O)COC(=O)c6cccnc6)CC[C@]54C)[C@H]2[C@H]1OC3
- IC50 (MCF7): > 100 µM
- IC50 (A549): > 100 µM
- IC50 (HCT-116 [1]): > 100 µM
- IC50 (RD): > 100 µM
- IC50 [2]: > 100 µM
- IC50 (HEp-2): > 100 µM

SMILES: C=C(C=O)[C@@H]1CC[C@]2(C(=O)OC)CC[C@]3(C)[C@H](CC[C@@H]4[C@@](C)(CC#N)[C@H](C(C)(C)C(=O)COC=O)CC[C@]43C)[C@@H]12
- IC50 (MCF7): 30 µM
- IC50 (A549): > 100 µM
- IC50 (HCT-116 [1]): 79.8 µM
- IC50 (RD): 49.4 µM
- IC50 [2]: 49.1 µM
- IC50 (HEp-2): 78.9 µM

SMILES: CC1(C)CC[C@]23CC[C@]4(C)[C@H](CC[C@@H]5[C@@](C)(CC#N)[C@H](C(C)(C)C(O)CO)CC[C@]54C)[C@H]2[C@H]1OC3 (stereo partly drawn)
- IC50 (MCF7): 59.8 µM
- IC50 (A549): > 100 µM
- IC50 (HCT-116 [1]): 81.9 µM
- IC50 (RD): > 100 µM
- IC50 [2]: 38 µM
- IC50 (HEp-2): > 100 µM

SMILES: CC1(C)CC[C@]23CC[C@]4(C)[C@H](CC[C@@H]5[C@@](C)(CC#N)[C@H](C(C)(C)C(=O)COC(=O)CCCCCCCCC(=O)O)CC[C@]54C)[C@H]2[C@H]1OC3
- IC50 (MCF7): > 100 µM
- IC50 (A549): > 100 µM
- IC50 (HCT-116 [1]): > 100 µM
- IC50 (RD): > 100 µM
- IC50 [2]: > 100 µM
- IC50 (HEp-2): > 100 µM

SMILES: CC(C)(CC(=O)OCC(=O)C(C)(C)[C@@H]1CC[C@]2(C)[C@H](CC[C@@H]3[C@H]4[C@H]5OC[C@@]4(CCC5(C)C)CC[C@]32C)[C@@]1(C)CC#N)C(=O)O
- IC50 (MCF7): > 100 µM
- IC50 (A549): > 100 µM
- IC50 (HCT-116 [1]): > 100 µM
- IC50 (RD): > 100 µM
- IC50 [2]: > 100 µM
- IC50 (HEp-2): > 100 µM

SMILES: C=C(C=O)[C@@H]1CC[C@]2(C(=O)OC)CC[C@]3(C)[C@H](CC[C@@H]4[C@@](C)(CC#N)[C@H](C(C)(C)C(=O)COC(=O)c5cccnc5)CC[C@]43C)[C@@H]12
- IC50 (MCF7): 35 µM
- IC50 (HEK293): 59.4 µM
- selectivity ratio [3]: 1.47 to 8.45
- IC50 (A549): 40.3 µM
- selectivity ratio [4]: 1.47 to 8.45
- IC50 (HCT-116 [1]): 7.03 µM
- selectivity ratio [5]: 1.47 to 8.45
- IC50 (RD): 8.98 µM
- IC50 [2]: 8.27 µM
- IC50 (HEp-2): 29.5 µM

SMILES: C=C(C=O)[C@@H]1CC[C@]2(C(=O)OC)CC[C@]3(C)[C@H](CC[C@@H]4[C@]5(C)[C@@H](CC[C@]43C)C(C)(C)[C@@](O)(CO)[C@H]5C#N)[C@@H]12
- IC50 (MCF7): 8.39 µM
- IC50 (HEK293): 118 µM
- selectivity ratio [3]: 4.08 to 20.2
- IC50 (A549): 28.8 µM
- selectivity ratio [4]: 4.08 to 20.2
- IC50 (HCT-116 [1]): 9.32 µM
- selectivity ratio [5]: 4.08 to 20.2
- IC50 (RD): 5.83 µM
- IC50 [2]: 12.3 µM
- IC50 (HEp-2): 23.7 µM

SMILES: CC1(C)CC[C@]23CC[C@]4(C)[C@H](CC[C@@H]5[C@@](C)(CC#N)[C@H](C(C)(C)C(=O)COC(=O)CC(=O)CC(=O)O)CC[C@]54C)[C@H]2[C@H]1OC3
- IC50 (MCF7): > 100 µM
- IC50 (A549): 69.5 µM
- IC50 (HCT-116 [1]): > 100 µM
- IC50 (RD): 50.1 µM
- IC50 [2]: 87.5 µM
- IC50 (HEp-2): > 100 µM

SMILES: CC1(C)CC[C@]23CC[C@]4(C)[C@H](CC[C@@H]5[C@@](C)(CC#N)[C@H](C(C)(C)C(=O)CO)CC[C@]54C)[C@H]2[C@H]1OC3
- IC50 (MCF7): > 100 µM
- IC50 (A549): > 100 µM
- IC50 (HCT-116 [1]): > 100 µM
- IC50 (RD): > 100 µM
- IC50 [2]: > 100 µM
- IC50 (HEp-2): > 100 µM

SMILES: CC1(C)CC[C@]23CC[C@]4(C)[C@H](CC[C@@H]5[C@@](C)(CC#N)[C@H](C(C)(C)C(=O)COC=O)CC[C@]54C)[C@H]2[C@H]1OC3
- IC50 (MCF7): > 100 µM
- IC50 (A549): > 100 µM
- IC50 (HCT-116 [1]): > 100 µM
- IC50 (RD): > 100 µM
- IC50 [2]: > 100 µM
- IC50 (HEp-2): > 100 µM

SMILES: CC1(C)CC[C@]23CC[C@]4(C)[C@H](CC[C@@H]5[C@@](C)(CC#N)[C@H](C(C)(C)C(=O)[C@@H](Cl)Br)CC[C@]54C)[C@H]2[C@H]1OC3
- IC50 (MCF7): 10.8 µM
- IC50 (A549): 35.2 µM
- IC50 (HCT-116 [1]): 13.2 µM
- IC50 (RD): 11.3 µM
- IC50 [2]: 24.7 µM
- IC50 (HEp-2): > 100 µM

SMILES: COc1cccc2c1C(=O)c1c(O)c3c(c(O)c1C2=O)C[C@@](O)(C(=O)CO)C[C@@H]3O[C@H]1C[C@H](N)[C@H](O)[C@H](C)O1 [DOXORUBICIN]
- IC50 (HEK293): 0.02 µM
- Activity (HCT-116 [1]): Dose-dependent effect
- Activity (HCT-116 [6]): Tde
- IC50 (RD): 1.27 µM
- IC50 [2]: 1.29 µM
- IC50 (HEp-2): 1.78 µM

SMILES: CC(=O)Oc1ccccc1C(=O)OCC(=O)C(C)(C)[C@@H]1CC[C@]2(C)[C@H](CC[C@@H]3[C@H]4[C@H]5OC[C@@]4(CCC5(C)C)CC[C@]32C)[C@@]1(C)CC#N
- IC50 (MCF7): > 100 µM
- IC50 (A549): > 100 µM
- IC50 (HCT-116 [1]): > 100 µM
- IC50 (RD): > 100 µM
- IC50 [2]: > 100 µM
- IC50 (HEp-2): > 100 µM

SMILES: C=C(C=O)[C@@H]1CC[C@]2(C(=O)OC)CC[C@]3(C)[C@H](CC[C@@H]4[C@@](C)(CC#N)[C@H](C(C)(C)C(=O)COC(=O)c5ccccc5OC(C)=O)CC[C@]43C)[C@@H]12
- IC50 (MCF7): > 100 µM
- IC50 (HEK293): 108 µM
- selectivity ratio [3]: 1.08 to 22.5
- IC50 (A549): 22.8 µM
- selectivity ratio [4]: 1.08 to 22.5
- IC50 (HCT-116 [1]): 4.91 µM
- selectivity ratio [5]: 1.08 to 22.5
- IC50 (RD): 4.81 µM
- IC50 [2]: 12.8 µM
- IC50 (HEp-2): 36.2 µM

SMILES: CC(=O)OCC(=O)C(C)(C)[C@@H]1CC[C@]2(C)[C@H](CC[C@@H]3[C@H]4[C@H]5OC[C@@]4(CCC5(C)C)CC[C@]32C)[C@@]1(C)CC#N
- IC50 (MCF7): > 100 µM
- IC50 (A549): > 100 µM
- IC50 (HCT-116 [1]): > 100 µM
- IC50 (RD): > 100 µM
- IC50 [2]: > 100 µM
- IC50 (HEp-2): > 100 µM

SMILES: CC1(C)CC[C@]23CC[C@]4(C)[C@H](CC[C@@H]5[C@@](C)(CC#N)[C@H](C(C)(C)C(=O)COC(=O)/C=C/c6ccccc6)CC[C@]54C)[C@H]2[C@H]1OC3
- IC50 (MCF7): > 100 µM
- IC50 (A549): > 100 µM
- IC50 (HCT-116 [1]): 28.5 µM
- IC50 (RD): 44.3 µM
- IC50 [2]: > 100 µM
- IC50 (HEp-2): > 100 µM

SMILES: CC1(C)CC[C@]23CC[C@]4(C)[C@H](CC[C@@H]5[C@@](C)(CC#N)[C@H](C(C)(C)C(=O)C(Cl)Cl)CC[C@]54C)[C@H]2[C@H]1OC3
- IC50 (MCF7): 10.8 µM
- IC50 (A549): 35.2 µM
- IC50 (HCT-116 [1]): 13.2 µM
- IC50 (RD): 11.3 µM
- IC50 [2]: 24.7 µM
- IC50 (HEp-2): > 100 µM

SMILES: C=C(CO)[C@@H]1CC[C@]2(C(=O)OC)CC[C@]3(C)[C@H](CC[C@@H]4[C@@](C)(CC#N)[C@H](C(C)(C)C(=O)COC(C)=O)CC[C@]43C)[C@@H]12
- IC50 (MCF7): 10.3 µM
- IC50 (A549): 50.7 µM
- IC50 (HCT-116 [1]): 43.7 µM
- IC50 (RD): 33.4 µM
- IC50 [2]: 24 µM
- IC50 (HEp-2): 81.2 µM

SMILES: CC1(C)CC[C@]23CC[C@]4(C)[C@H](CC[C@@H]5[C@@](C)(CC#N)[C@H](C(C)(C)C(=O)COC(=O)CCC(=O)O)CC[C@]54C)[C@H]2[C@H]1OC3
- IC50 (MCF7): > 100 µM
- IC50 (A549): > 100 µM
- IC50 (HCT-116 [1]): > 100 µM
- IC50 (RD): > 100 µM
- IC50 [2]: > 100 µM
- IC50 (HEp-2): > 100 µM

SMILES: CC1(C)CC[C@]23CC[C@]4(C)[C@H](CC[C@@H]5[C@]6(C)[C@@H](CC[C@]54C)C(C)(C)[C@@](O)(CO)[C@H]6C#N)[C@H]2[C@H]1OC3
- IC50 (MCF7): > 100 µM
- IC50 (A549): > 100 µM
- IC50 (HCT-116 [1]): > 100 µM
- IC50 (RD): > 100 µM
- IC50 [2]: > 100 µM
- IC50 (HEp-2): > 100 µM

SMILES: C=C(C=O)[C@@H]1CC[C@]2(C(=O)OC)CC[C@]3(C)[C@H](CC[C@@H]4[C@@](C)(CC#N)[C@H](C(C)(C)C(=O)COC(=O)/C=C/c5ccccc5)CC[C@]43C)[C@@H]12
- IC50 (MCF7): 8.54 µM
- IC50 (HEK293): 184 µM
- selectivity ratio [3]: 1.84 to 50.3
- IC50 (A549): > 100 µM
- selectivity ratio [4]: 1.84 to 50.3
- IC50 (HCT-116 [1]): 13.2 µM
- selectivity ratio [5]: 1.84 to 50.3
- IC50 (RD): 3.65 µM
- IC50 [2]: 22 µM
- IC50 (HEp-2): 84.8 µM

SMILES: C=C(CO)[C@@H]1CC[C@]2(C(=O)OC)CC[C@]3(C)[C@H](CC[C@@H]4[C@@](C)(CC#N)[C@H](C(C)(C)C(O)CO)CC[C@]43C)[C@@H]12 (stereo partly drawn)
- IC50 (MCF7): > 100 µM
- IC50 (A549): > 100 µM
- IC50 (HCT-116 [1]): > 100 µM
- IC50 (RD): 72.4 µM
- IC50 [2]: > 100 µM
- IC50 (HEp-2): > 100 µM
